From patent US9856290B2, “Glycopeptide compositions and uses thereof” (SUSSEX RESEARCH LABORATORIES INC., priority 2013, dated 2018)
Where a SMILES comes first, the peptide text is derived from it.

Experiments:
[1] = test system: MatTek's EpiDermFT 3D human in vitro skin model; assay: Histology (hematoxylin & eosin) of 3D human in vitro skin model; type: cell-based; details: 5 μM, 72 hours post treatment
Experimental: MatTek's EpiDermFT™ 3D human in vitro skin model was produced by MatTek Corporation (Ashland, Mass., USA). The 3D skin model is comprised of normal human epidermal keratinocytes (NHEK) and normal human dermal fibroblasts (NHDF) derived from neonatal-foreskin tissue and adult skin, respectively. […] The tissues were grown at air-liquid interface in Costar Snapwell™ single well tissue culture plate inserts with 0.4 μm pore size, 1.2 cm in diameter and 1.0 cm^2 surface area. For tissue maintenance, serum-free EFT-400-ASY media was used containing Dulbecco's Modified Eagle's Medium (DMEM), epidermal growth factor, insulin, hydrocortisone, 5 μg/mL gentamicin, 0.2 μg/ml amphotericin B and phenol red.
Tissues were rinsed twice with 1% PBS and treated with 5 μM GP003-9, reference (Pal-KTTKS, CPC Scientific, 822197), and control (DMSO, Fisher, BP231-100). At 72 hours post treatment, the tissue was fixed in 10% neutral buffered formalin overnight and transferred to 1% PBS the next day. […]
MatTek's EpiDermFT™, which is a 3D human in vitro skin model (comprised of normal human epidermal ketatinocytes and normal human dermal fibroblasts), was used to further investigate the effects of an exemplary glycosylated peptide (GP003-9 (SEQ ID NO: 6)) on human skin. […] At 72 hours post treatment, supernatants were isolated and analysed for elastin secretion. […]

[2] = test system: Human Dermal Fibroblasts (KMST-6); assay: Cell morphology (phase contrast images); type: cell-based; details: 5 μM
Experimental: KMST-6 cells (Japan Health Sciences Foundation, JCRB0433) were seeded at 7,000 cells/ml in 12-well tissue culture treated plates (Falcon, 353043) in complete media. The complete media consists of the following: MEM/EBSS (Hyclone, SH30024.01), 10% Heat-Inactivated FBS (Gibco, 10082-147), 1% L-Glutamine (Hyclone, SH30031.01), 1% Nucleosides (800 mg/L Adenosine, 850 mg/L Guanidine, 730 mg/L Cytidine, 730 mg/L Uridine and 240 mg/L Thymidine), 1% Penicillin/Streptomycin (HyClone, SV30010), 1% Sodium Pyruvate (HyClone, SH30239.01), 1% Non-Essential Amino Acids (Hyclone, SH30238.01) and 0.04% Gentamicin (Gibco, 15710-064). Cells were grown for 2 days prior to treatments. The media was aspirated and cells were washed with 1×PBS (Fisher, SH30256.01) and treated with 5 μM glycopeptides (GP001-1, GP002-3, GP002-7, GP003-9, GP004-3 and GP004-4), reference (Pal-KTTKS, CPC Scientific, 822197), and control (DMSO, Fisher, BP231-100) in serum-free media supplemented with 50 μg/mL Sodium Ascorbate (Sigma, A4034) and 80 μg/mL β-Aminopropionate Fumarate (Sigma, A3134). The treated cells were incubated at 37° C. and 5% CO2 for 48 and 72 hours. At each time point, images were taken with an Olympus Opti-Tech Scientific Microscope (Lumenera, Infinity 2 camera at 10× magnification) and changes in cell size and morphology were recorded. […]

[3] = test system: fibroblast; details: under certain conditions; cited from earlier work
[4] = test system: Human Dermal Fibroblasts (KMST-6); assay: Cell Viability MTT Assay; type: cell-based; details: 5 μM, KMST-6, 48 and 72 hours; toxicity defined as viability less than 50% of control
Experimental: KMST-6 cells (Japan Health Sciences Foundation, JCRB0433) were seeded at 7,000 cells/ml in complete media. The complete media consists of the following: MEM/EBSS (Hyclone, SH30024.01), 10% Heat-Inactivated FBS (Gibco, 10082-147), 1% L-Glutamine (Hyclone, SH30031.01), 1% Nucleosides (800 mg/L Adenosine, 850 mg/L Guanidine, 730 mg/L Cytidine, 730 mg/L Uridine and 240 mg/L Thymidine), 1% Penicillin/Streptomycin (HyClone, SV30010), 1% Sodium Pyruvate (HyClone, SH30239.01), 1% Non-Essential Amino Acids (Hyclone, SH30238.01) and 0.04% Gentamicin (Gibco, 15710-064). Cells were grown for 2 days prior to treatments. […] The absorbance was measured with a microplate reader (Molecular Devices, SpectraMax M2e) at 570 nm. […]
To determine effects on cell viability as a measure of toxicity, 5 μM of the 6 exemplary glycopeptides were applied to Human Dermal Fibroblasts (KMST-6) as previously described. […] The absorbance was measured with a microplate reader (Molecular Devices, SpectraMax M2e) at 570 nm. Three or more independent experiments were performed and statistical significance was determined using One-way ANOVA (p<0.05). […]

[5] = test system: human lung fibroblasts; details: human lung fibroblasts in vitro; cited from earlier work

Compound: CCCCCCCCCCCCCCCC(=O)N[C@@H](CCCCN)C(=O)N[C@H](C(=O)N[C@H](C(=O)N[C@@H](CCCCN)C(=O)N[C@@H](CO)C(=O)O)[C@@H](C)O)[C@@H](C)O[C@@H]1O[C@H](COC(C)=O)[C@@H](O[C@H]2O[C@H](COC(C)=O)[C@@H](OC(C)=O)[C@H](OC(C)=O)[C@H]2OC(C)=O)[C@H](OC(C)=O)[C@H]1OC(C)=O [GP003-9, Pal-KT(Ac7-β-Mal)TKS-OH]
- effect on the histology of the 3D human skin model [1]: no detrimental effect

Compound: CCCCCCCCCCCCCCCC(=O)N[C@@H](CCCCN)C(=O)N[C@H](C(=O)N[C@H](C(=O)N[C@@H](CCCCN)C(=O)N[C@@H](CO)C(=O)O)[C@@H](C)O)[C@@H](C)O [Reference, Pal-KTTKS] (HELM PEPTIDE1{[CCCCCCCCCCCCCCCC(=O)[*:2]].K.T.T.K.S}$$$$V2.0)
- cell confluence compared to control and glycopeptide treated cells ([2]; KMST-6): demonstrated decrease in cell confluence
- toxicity as observed through phase-contrast morphology ([2]; KMST-6, 48 and 72 hours): visibly interfered with cell viability
- fibroblast cell viability [3]: decrease fibroblast cell viability
- cell viability as a measure of toxicity (MTT assay) [4]: significant decrease in cell viability

Compound: Lys-Thr-Thr-Lys-Ser (KTTKS; listed as Homo sapiens) [pentapeptide derived from the carboxyl-terminus of type I procollagen]
- ECM proteins (synthesis of collagen types I and III and fibronectin) [5]: significantly augment the ECM proteins
